Reference: PMC10456528, “Purification and Molecular Docking Study on the Angiotensin I-Converting Enzyme (ACE)-Inhibitory Peptide Isolated from Hydrolysates of the Deep-Sea Mussel Gigantidas vrijenhoeki” (Marine Drugs, 2023)
Ends that are not written are not given here. Peptide text beside a SMILES is read from it.

Assays:
[1] = molecular target: T1, angiotensin I-converting enzyme (ACE) (Homo sapiens, UniProt P12821); experiment: ACE inhibitory activity assay (Dojindo ACE Kit); format: biochemical; parameters: purchased Dojindo Laboratories, Kumamoto, Japan; conditions: synthetic peptides with the sequences identified in <1 kDa fraction; triplicate experiments
Method: ACE inhibitory activity was measured using the Dojindo ACE Kit-WET kit (Dojindo Laboratories, Kumamoto, Japan), according to the manufacturer’s instructions. The ACE-inhibitory activity was calculated as follows: ACE inhibitory activity (%)=Acontrol−Asample/Acontrol−Ablank×100% where Acontrol is the absorbance of the positive control, Ablank is the absorbance of the blank containing distilled water, and Asample is the absorbance of the sample. The IC50 value was determined as the concentration of inhibitor required to inhibit 50% of the ACE activity.
Target sequence in this assay (P12821 30-1306, species assumed): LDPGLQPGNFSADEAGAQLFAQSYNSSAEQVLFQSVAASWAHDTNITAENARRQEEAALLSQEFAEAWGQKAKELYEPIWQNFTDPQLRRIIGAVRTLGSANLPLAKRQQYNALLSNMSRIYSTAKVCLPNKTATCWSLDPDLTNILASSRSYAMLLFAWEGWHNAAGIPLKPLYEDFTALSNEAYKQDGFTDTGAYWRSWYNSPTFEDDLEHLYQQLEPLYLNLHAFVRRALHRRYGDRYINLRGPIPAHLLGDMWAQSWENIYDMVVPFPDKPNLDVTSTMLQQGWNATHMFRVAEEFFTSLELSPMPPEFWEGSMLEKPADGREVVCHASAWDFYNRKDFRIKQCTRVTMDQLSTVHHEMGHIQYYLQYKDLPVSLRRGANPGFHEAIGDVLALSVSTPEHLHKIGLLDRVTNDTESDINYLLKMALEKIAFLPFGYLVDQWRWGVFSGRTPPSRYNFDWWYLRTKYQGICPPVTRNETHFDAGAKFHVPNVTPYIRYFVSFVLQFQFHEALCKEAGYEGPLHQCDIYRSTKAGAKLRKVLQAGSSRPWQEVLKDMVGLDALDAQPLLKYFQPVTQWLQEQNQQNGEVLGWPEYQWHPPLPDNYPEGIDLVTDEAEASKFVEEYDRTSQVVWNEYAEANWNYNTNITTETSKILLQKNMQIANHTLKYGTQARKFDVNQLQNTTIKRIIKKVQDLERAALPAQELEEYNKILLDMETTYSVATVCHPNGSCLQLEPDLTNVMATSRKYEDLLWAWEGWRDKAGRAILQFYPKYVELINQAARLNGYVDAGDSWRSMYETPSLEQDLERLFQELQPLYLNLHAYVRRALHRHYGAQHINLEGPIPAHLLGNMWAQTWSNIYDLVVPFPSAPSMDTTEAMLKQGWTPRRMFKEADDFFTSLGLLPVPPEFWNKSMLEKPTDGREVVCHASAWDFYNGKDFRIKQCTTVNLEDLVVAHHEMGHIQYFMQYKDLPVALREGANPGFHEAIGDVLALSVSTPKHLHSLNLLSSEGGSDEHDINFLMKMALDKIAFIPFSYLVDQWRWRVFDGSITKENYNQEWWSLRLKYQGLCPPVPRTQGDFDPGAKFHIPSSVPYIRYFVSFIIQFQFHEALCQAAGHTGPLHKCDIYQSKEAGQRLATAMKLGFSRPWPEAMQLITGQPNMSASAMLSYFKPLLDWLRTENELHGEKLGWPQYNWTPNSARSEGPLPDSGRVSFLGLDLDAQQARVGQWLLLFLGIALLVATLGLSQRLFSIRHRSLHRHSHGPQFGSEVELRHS

[2] = molecular target: T1, angiotensin I-converting enzyme (ACE)
Target sequence in this assay (P12821 30-1256): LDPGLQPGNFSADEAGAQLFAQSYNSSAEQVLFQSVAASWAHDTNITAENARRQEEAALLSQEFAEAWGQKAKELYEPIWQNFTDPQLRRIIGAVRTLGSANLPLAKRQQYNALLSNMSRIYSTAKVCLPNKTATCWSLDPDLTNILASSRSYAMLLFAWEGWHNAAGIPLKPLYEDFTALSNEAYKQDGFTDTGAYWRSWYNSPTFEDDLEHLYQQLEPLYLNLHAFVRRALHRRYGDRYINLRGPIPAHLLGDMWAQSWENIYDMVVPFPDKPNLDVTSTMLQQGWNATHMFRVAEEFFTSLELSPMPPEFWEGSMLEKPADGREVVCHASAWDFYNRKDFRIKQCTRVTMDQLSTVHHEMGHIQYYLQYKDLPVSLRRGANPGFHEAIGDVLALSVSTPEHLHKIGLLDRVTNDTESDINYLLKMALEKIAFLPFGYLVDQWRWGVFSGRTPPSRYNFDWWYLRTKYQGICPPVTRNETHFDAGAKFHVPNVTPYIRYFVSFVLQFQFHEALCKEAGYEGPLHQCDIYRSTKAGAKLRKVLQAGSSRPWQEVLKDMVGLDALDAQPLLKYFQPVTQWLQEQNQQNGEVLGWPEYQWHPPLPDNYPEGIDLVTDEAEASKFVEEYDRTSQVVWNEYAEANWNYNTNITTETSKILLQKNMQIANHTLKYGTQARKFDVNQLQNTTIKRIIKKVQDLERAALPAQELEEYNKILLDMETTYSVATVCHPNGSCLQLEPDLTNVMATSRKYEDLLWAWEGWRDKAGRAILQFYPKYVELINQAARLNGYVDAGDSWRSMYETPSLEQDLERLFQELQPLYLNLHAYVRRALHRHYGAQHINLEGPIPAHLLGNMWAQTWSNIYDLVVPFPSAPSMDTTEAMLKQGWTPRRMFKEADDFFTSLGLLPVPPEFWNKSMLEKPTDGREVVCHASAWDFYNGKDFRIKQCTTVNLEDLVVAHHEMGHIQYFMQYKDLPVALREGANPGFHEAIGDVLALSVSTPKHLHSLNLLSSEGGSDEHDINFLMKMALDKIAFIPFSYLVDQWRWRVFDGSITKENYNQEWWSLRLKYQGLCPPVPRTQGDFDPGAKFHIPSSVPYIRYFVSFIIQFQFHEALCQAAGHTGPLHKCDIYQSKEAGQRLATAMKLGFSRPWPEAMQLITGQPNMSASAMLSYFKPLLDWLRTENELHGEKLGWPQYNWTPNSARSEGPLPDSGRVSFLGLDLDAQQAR

Molecule	IC50 [1] [nM]	IC50 of ACE inhibitory activity (enzyme activity, Dojindo ACE kit, synthetic peptide) [2] [µM]
KVHL [G. vrijenhoeki peptide (GVP)-3]	–	0.292
PSLVG [G. vrijenhoeki peptide (GVP)-5]	–	0.582
LNSL [G. vrijenhoeki peptide (GVP)-6]	–	1.39
KLLWNGKM [G. vrijenhoeki peptide (GVP)-10]	–	0.007
KVLH [G. vrijenhoeki peptide (GVP)-2]	–	0.162
KLQE [G. vrijenhoeki peptide (GVP)-1]	–	2.96
YALPHAL [G. vrijenhoeki peptide (GVP)-11]	–	0.795
ALRPKF [G. vrijenhoeki peptide (GVP)-7]	–	0.024
PGLADMR [G. vrijenhoeki peptide (GVP)-8]	–	0.513

Other lines, results leading:

IC50 [1] [nM]	IC50 of ACE inhibitory activity (enzyme activity, Dojindo ACE kit, synthetic peptide) [2] [µM]	Molecule
2960 ± 165	–	CC(C)C[C@H](NC(=O)[C@@H](N)CCCCN)C(=O)N[C@@H](CCC(N)=O)C(=O)N[C@@H](CCC(=O)O)C(=O)O [GVP-1, KLQE] (H-KLQE-OH)
162 ± 2	–	CC(C)C[C@H](NC(=O)[C@@H](NC(=O)[C@@H](N)CCCCN)C(C)C)C(=O)N[C@@H](Cc1c[nH]cn1)C(=O)O [GVP-2, KVLH] (H-KVLH-OH)
292 ± 13	–	CC(C)C[C@H](NC(=O)[C@H](Cc1c[nH]cn1)NC(=O)[C@@H](NC(=O)[C@@H](N)CCCCN)C(C)C)C(=O)O [GVP-3, KVHL] (H-KVHL-OH)
67 ± 5	–	CC(C)C[C@H](N)C(=O)N[C@H](C(=O)N[C@@H](CCCNC(=N)N)C(=O)O)C(C)C [GVP-4, LVR] (H-Leu-Val-Arg-OH; N-terminus and C-terminus assumed)
1390 ± 11	–	CC(C)C[C@H](NC(=O)[C@H](CO)NC(=O)[C@H](CC(N)=O)NC(=O)[C@@H](N)CC(C)C)C(=O)O [GVP-6, LNSL] (H-LNSL-OH; N-terminus and C-terminus assumed)
435 ± 7	–	CC(C)C[C@H](NC(=O)[C@@H](N)CC(C)C)C(=O)N[C@@H](CCCNC(=N)N)C(=O)O [GVP-9, LLR]
24 ± 17	–	ALRPKF [GVP-7, ALRPKF]
7 ± 2	–	KLLWNGKM [GVP-10, KLLWNGKM]
513 ± 2	–	PGLADMR [GVP-8, PGLADMR]
582 ± 8	–	PSLVG [GVP-5, PSLVG]
795 ± 15	–	YALPHAL [GVP-11, YALPHAL]
